Measured values as given in patent US11117891B2, “Isoquinolin and naphthydrin compounds” (Eli Lilly and Company, priority 2017, dated 2021).

Columns and labels:
[1] = biological target: recombinant human ASK1 (hASK1) catalytic domain (Homo sapiens (Human), UniProt Q99683); assay: ASK1 enzymatic assay (ADP-Glo Kinase Assay); assay type: biochemical; settings: for IC50: ADP production, MKK6 300 nM substrate, ATP 100 uM, mean ± standard deviation; for Efficacy (%): hASK1 enzymatic assay, relative to standard inhibitor (100%) and DMSO vehicle (0%)
Excerpt: The purpose of this assay is to determine the effect of ASK1 inhibitors on the production of ADP by ASK1. The recombinant human ASK1 (hASK1) catalytic domain tagged with Glutathione S-transferase is used, and histidine-tagged full-length human MAP kinase kinase 6 (MKK6) and ATP are the substrate and cofactor, respectively.
The assay is done using an ADP-Glo™ Kinase Assay Kit (Promega, Catalog #V9102) according to the manufacturer's protocol with the following modifications. Briefly, hASK1 (0.25 nM) and MKK6 (300 nM) in a buffer (10 mM MOPS pH 7.0; 10 mM Mg-Acetate; 1 mM DTT; 0.025% NP-40; 0.05% BSA; 1.5% glycerol) are incubated with ASK1 inhibitors at varying concentrations ranging from 10.00 uM to 0.17 nM for 15 minutes, followed by incubation with ATP (100 uM) for 30 minutes at room temperature. ADP-Glo™ Reagent is added to terminate the kinase reaction and deplete the remaining ATP. The Kinase Detection Reagent is then added to convert ADP to ATP. The newly synthesized ATP is measured using a luciferase/luciferin reaction, and the luminescence determined by Envision (PerkinElmer). The luminescence intensities are analyzed by GeneData, and fit to a 4 parameter dose response-inhibitor logistics curve to determine IC50 values, using the effects of 5-(4-cyclopropyl-1H-imidazol-1-yl)-2-fluoro-4-methyl-N-{6-[4-(propan-2-yl)-4H-1,2,4-triazol-3-yl]pyridin-2-yl}benzamide as a standard and DMSO vehicle for 100% and 0% inhibition, respectively.

human ASK1 = human ASK1 (Homo sapiens (Human), UniProt Q99683); assay: ASK1 autophosphorylation (Thr838) assay in HEK293 cells overexpressing human ASK1; assay type: cell-based; settings: for IC50: H2O2-stimulated (1 mM, 10 min) ASK1 autophosphorylation at Thr838, HEK293 cells, HTRF, mean ± standard deviation, read-out: HEK pASK1 IC50; for Efficacy (%): HEK pASK1 assay, relative to standard inhibitor (100%) and DMSO vehicle (0%)
human ASK1, sequence (Q99683 whole entry): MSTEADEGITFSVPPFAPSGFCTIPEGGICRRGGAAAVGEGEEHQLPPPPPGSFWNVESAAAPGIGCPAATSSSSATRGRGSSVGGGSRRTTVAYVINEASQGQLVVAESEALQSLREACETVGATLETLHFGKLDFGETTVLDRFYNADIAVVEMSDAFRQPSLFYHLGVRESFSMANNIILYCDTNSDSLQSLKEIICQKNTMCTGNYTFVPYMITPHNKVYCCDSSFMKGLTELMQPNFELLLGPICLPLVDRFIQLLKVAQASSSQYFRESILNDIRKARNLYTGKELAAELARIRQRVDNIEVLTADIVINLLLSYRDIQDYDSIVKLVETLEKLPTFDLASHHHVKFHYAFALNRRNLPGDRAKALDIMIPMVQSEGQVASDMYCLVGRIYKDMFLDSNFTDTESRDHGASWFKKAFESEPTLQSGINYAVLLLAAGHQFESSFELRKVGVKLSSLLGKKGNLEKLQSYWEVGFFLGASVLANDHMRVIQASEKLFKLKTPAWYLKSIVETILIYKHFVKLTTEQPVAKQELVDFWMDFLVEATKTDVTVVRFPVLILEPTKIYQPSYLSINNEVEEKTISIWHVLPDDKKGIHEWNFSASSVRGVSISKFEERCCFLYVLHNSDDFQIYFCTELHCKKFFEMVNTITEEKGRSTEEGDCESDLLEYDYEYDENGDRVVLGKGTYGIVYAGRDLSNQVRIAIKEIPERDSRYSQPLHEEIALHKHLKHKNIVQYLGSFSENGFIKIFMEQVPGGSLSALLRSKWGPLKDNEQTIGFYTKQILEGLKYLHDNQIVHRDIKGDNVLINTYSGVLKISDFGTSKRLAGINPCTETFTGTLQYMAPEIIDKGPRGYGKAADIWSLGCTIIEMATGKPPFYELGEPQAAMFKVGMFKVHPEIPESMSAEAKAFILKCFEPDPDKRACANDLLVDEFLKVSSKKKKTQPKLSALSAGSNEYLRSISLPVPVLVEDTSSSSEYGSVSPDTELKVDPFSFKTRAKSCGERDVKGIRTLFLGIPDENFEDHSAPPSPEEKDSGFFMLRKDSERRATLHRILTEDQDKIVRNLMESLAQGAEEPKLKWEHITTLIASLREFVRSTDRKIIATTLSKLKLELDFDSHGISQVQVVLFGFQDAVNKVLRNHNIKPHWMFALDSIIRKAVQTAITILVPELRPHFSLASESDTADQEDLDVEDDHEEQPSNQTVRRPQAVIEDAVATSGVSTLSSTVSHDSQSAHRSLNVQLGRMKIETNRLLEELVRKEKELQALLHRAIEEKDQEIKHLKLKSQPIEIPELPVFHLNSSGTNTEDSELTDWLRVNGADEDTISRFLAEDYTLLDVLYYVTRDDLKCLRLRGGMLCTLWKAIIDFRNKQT

recombinant human ASK1 (hASK1) catalytic domain, sequence (Q99683 680-938): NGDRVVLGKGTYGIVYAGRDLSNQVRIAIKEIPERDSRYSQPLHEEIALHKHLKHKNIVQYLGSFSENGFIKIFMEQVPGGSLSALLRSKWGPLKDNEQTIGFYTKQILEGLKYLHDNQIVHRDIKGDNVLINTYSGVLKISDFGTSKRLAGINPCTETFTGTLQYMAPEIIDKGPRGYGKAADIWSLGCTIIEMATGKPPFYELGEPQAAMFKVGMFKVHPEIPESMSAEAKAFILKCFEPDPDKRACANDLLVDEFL

Structure (SMILES)	IC50 [1] [nM]	Efficacy (%) [1] [%]	IC50 (human ASK1) [nM]	Efficacy (%) (human ASK1)
Cc1cc2c(cc1-c1cnn(C(C)C)c1)C(=O)N(c1cccc(-c3nncn3C(C)C)n1)CC2 [Example 1, 7-(1-Isopropylpyrazol-4-yl)-2-[6-(4-isopropyl-1,2,4-triazol-3-yl)-2-pyridyl]-6-methyl-3,4-dihydroisoquinolin-1-one]	3.6 ± 0.8	101	38.6 ± 2.4	107
Cc1cc2c(cc1-n1cnc(C3CC3)c1)C(=O)N(c1cccc(-c3nncn3C(C)C)n1)CC2 [Example 2, 7-(4-Cyclopropylimidazol-1-yl)-2-[6-(4-isopropyl-1,2,4-triazol-3-yl)-2-pyridyl]-6-methyl-3,4-dihydroisoquinolin-1-one]	1.8 ± 0.4	100.5	13.1 ± 2.8	103
CC(C)n1cnnc1-c1cccc(N2CCc3ncc(-n4cnc(C5CC5)c4)cc3C2=O)n1.Cl [Example 3, 3-(4-Cyclopropylimidazol-1-yl)-6-[6-(4-isopropyl-1,2,4-triazol-3-yl)-2-pyridyl]-7,8-dihydro-1,6-naphthyridin-5-one; hydrochloride]	3.8 ± 0.9	100.1	31.5 ± 6.6	107
CC(C)n1cc(-c2cnc3c(c2)C(=O)N(c2cccc(-c4nncn4C(C)C)n2)CC3)cn1 [Example 4, 3-(1-Isopropylpyrazol-4-yl)-6-[6-(4-isopropyl-1,2,4-triazol-3-yl)-2-pyridyl]-7,8-dihydro-1,6-naphthyridin-5-one]	4.2 ± 0.8	99.8	41.9 ± 0.5	105
